# Experiments:
# [1] = Compound cytotoxicity in HIV cytoprotection assay (XTT); assay type: cell-based; conditions: human, MT-4 cells; MT-4, HIV-1 assay
# Description: (§1) MT-4 cells ((Catalog #120) Human T-cell Leukemia) were obtained from the NIH AIDS Reference Reagent Program and were used in cytoprotection assays with HIV-1 Strain IIIB (Southern Research). They were grown in RPMI-1640 medium supplemented with 10% FBS.
# Cytoprotection Assay for HIV:_MT-4 cells were sub-cultured one day prior to testing. Cells were plated in 96 well cell culture plates at a seeding density of 6×10^5 cells/ml (3×10^4 cells/well). […] Virus and cells were mixed in the presence of serial dilutions of test compound and incubated for 5 days at 37° C., 5% CO2. Each assay plate contained cell control wells (cells only), virus control wells (cells plus virus), compound toxicity control wells (cells plus compound only) as well as experimental wells (compound plus cells plus virus). Cytoprotection and compound cytotoxicity were assessed by XTT assay (Cat#11-465-015-001, Roche Diagnostics). The plates were read spectrophotometrically at 450/650 nm with a Molecular Devices SpectraMax M2 plate reader. The percent reduction in viral CPE was determined and reported as IC50, CC50 and a calculated TI. Samples were evaluated for antiviral efficacy and cytotoxicity with triplicate measurements using 9 concentrations at 2-fold dilutions. Each assay included Raltegravir (MK0518) as an antiviral positive control compound.
# [2] = Compound cytotoxicity in cytoprotection assay (MTS), MDBK; conditions: cow, MDBK cells
# HIV-1 Strain IIIB = experiment: Cytoprotection assay for HIV; assay type: cell-based; conditions: Human immunodeficiency virus 1; HIV-1 IIIB, MT-4
# Description: Activity against other viruses. A representative compound, Example 20, Compound F, was tested against a panel of other RNA and DNA viruses. Compound F was synthesized as described in the Experimental section. Experimental conditions for growing the cells and viruses are listed below. Unless otherwise indicated, cells and viruses were obtained from the American Type Culture Collection (ATCC, Rockville, Md.).
# as §1
# Cytoprotection Assay for HIV:_MT-4 cells were sub-cultured one day prior to testing. Cells were plated in 96 well cell culture plates at a seeding density of 6×10^5 cells/ml (3×10^4 cells/well). […] Cytoprotection and compound cytotoxicity were assessed by XTT assay (Cat#11-465-015-001, Roche Diagnostics). The plates were read spectrophotometrically at 450/650 nm with a Molecular Devices SpectraMax M2 plate reader. The percent reduction in viral CPE was determined and reported as IC50, CC50 and a calculated TI. Samples were evaluated for antiviral efficacy and cytotoxicity with triplicate measurements using 9 concentrations at 2-fold dilutions. […]
# [3] = Protide stability in normal plasma, cynomolgous monkey; assay type: in vitro ADME; conditions: 37° C.
# Description: (§2) Selected nucleoside 5′-phosphoramidates were examined for stability in human, cynomolgous monkey, rat and mouse plasma at 37° C. at both 30 min and 90 min time points.
# (§3) Protide Stability in Normal Plasma: Plasma samples were prepared for analysis as follows. 50 μl of each test sample were distributed a 96-well V-bottom plate. 200 μl of acetonitrile containing 10 ng/ml of an internal standard was added to each plasma sample. The precipitated samples were centrifuged at 2500 rpm, 4° C. for 20 minutes in a Sorvall RT6000S centrifuge (Thermo Scientific, Waltham Mass.) and 100 μl of supernatant from each sample was transferred into a 96 deep well plate followed by the addition of 100 μl H2O to each sample. Samples were covered, mixed well by vortexing and maintained at 2-8° C. before and during analysis. 15 μl of each test sample was analyzed for protide concentrations by liquid chromatography coupled to tandem mass spectrometry (LC-MS/MS). Liquid chromatography was performed with an Agilent 1100 Series HPLC system equipped with a Synergi 4 μm Polar-RP, 30×2.0 mm column (Phenomenex, Torrance, Calif.). The HPLC system was coupled to an API 4000 triple quadrupole mass spectrometer (Applied Biosystems, Framingham, Mass.). Mass spectrometry was performed in positive ion mode and data was analyzed using Analyst® v1.4.2 software (Applied Biosystems, Framingham, Mass.). Data was presented as the percentage of compound recovered as compared to the 0 time point control.
# RSV strain Long = experiment: Cytoprotection assay, RSV; assay type: cell-based; conditions: human respiratory syncytial virus, Vero
# in vitro [4] = conditions: dog
# [5] = system: Vaccinia Strain Western Reserve; experiment: microbe, parasite or virus in culture; assay type: cell-based; conditions: Orthopoxvirus vaccinia, Vero C1008
# [6] = system: Dengue Virus Type 2 strain New Guinea; experiment: Cytoprotection assay, Dengue virus; assay type: cell-based; conditions: Vero C1008
# Influenza B strain Lee = experiment: Cytoprotection assay, Influenza B; assay type: cell-based; conditions: Influenza B virus, MDCK
# Rhinovirus strain 1B = experiment: Cytoprotection assay, Rhinovirus; assay type: cell-based; conditions: Enterovirus, MRC5
# MDCK cells = conditions: Influenza B assay
# in vitro [7] = conditions: African green monkey
# [8] = system: West Nile virus strain NY-99; experiment: Cytoprotection assay, West Nile virus; assay type: cell-based; conditions: West Nile Virus NY-99, Vero
# HeLa cells = conditions: human
# [9] = system: Influenza A strain Hong Kong; experiment: Cytoprotection assay, Influenza A; assay type: cell-based; conditions: Influenza A virus, MDCK
# [10] = Protide stability in normal plasma, human; assay type: in vitro ADME; conditions: 37° C.
# Description: as §2, §3
# Poliovirus strain Chat = experiment: microbe, parasite or virus in culture; assay type: cell-based, Poliovirus I; conditions: Enterovirus C, Vero
# [11] = Protide stability in normal plasma, mouse; assay type: in vitro ADME; conditions: 37° C.
# Description: as §2, §3
smiles,measurement,setting,value
COc1nc(N)nc2c1ncn2C1O[C@H](COP(=O)(N[C@@H](C)C(=O)OCC(C)(C)C)Oc2cccc3ccccc23)[C@@H](O)[C@@]1(C)O (stereo partly drawn) [Example 20],CC50 at 5 days,[1],11 µM
same,CC50 at 7 days,[2],> 10 µM
same,EC50,HIV-1 Strain IIIB,> 10 µM
same,% Compound Remaining Compared to %100 Acetonitrile Control,[3]; 30 min,97.0%
same,% Compound Remaining Compared to %100 Acetonitrile Control,[3]; 1.5 h,94.0%
same,EC50,RSV strain Long,> 10 µM
same,CC50,in vitro [4],> 10 µM
same,EC50,[5],4.52 µM
same,EC50,[6],1.81 µM
same,EC50,Influenza B strain Lee,> 10 µM
same,EC50,Rhinovirus strain 1B,> 10 µM
same,CC50,MDCK cells,> 10 µM
same,CC50,in vitro [7],> 10 µM
same,EC50,[8],1.69 µM
same,CC50,HeLa cells,> 10 µM
same,EC50,[9],> 10 µM
same,% Compound Remaining Compared to %100 Acetonitrile Control,[10]; 30 min,94.0%
same,% Compound Remaining Compared to %100 Acetonitrile Control,[10]; 1.5 h,101.5%
same,EC50,Poliovirus strain Chat,4.71 µM
same,% Compound Remaining Compared to %100 Acetonitrile Control,[11]; 30 min,0%
same,% Compound Remaining Compared to %100 Acetonitrile Control,[11]; 1.5 h,0%
